Structures are written as SMILES. Activity calls are given as the source filed them. How the calls were made is not given here. Bounds are passed on as bounds.

Chain of Serine/threonine-protein kinase mTOR (Homo sapiens) (P42345 2015-2114): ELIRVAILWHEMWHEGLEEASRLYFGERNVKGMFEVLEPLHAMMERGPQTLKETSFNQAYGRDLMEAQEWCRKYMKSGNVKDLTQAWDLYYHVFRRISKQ

This experiment addresses Serine/threonine-protein kinase mTOR (Homo sapiens) (UniProt P42345). The experiment in a line: binders of mTOR FRB domain, biophysical, NMR (AID 1648). The following applies: NMR binding to FRB domain, chemical shift.
As to `CC(=O)Oc1cccc2ccc(=O)[nH]c12`, the Kd (commonly the concentration at which binding is half-saturated) was > 4 mM (inactive).

As to `O=C(O)CCCCCCCC(=O)O`, the Kd was > 4 mM (inactive).

For `CCOC(=O)C1CCN(c2ccc(C#N)cc2)CC1`, the Kd was > 4 mM (inactive).

For the compound `Cc1cc(C)n2nc(NCc3ccccc3)nc2n1`, the Kd is > 4 mM (inactive).

Consider `Nc1cccc(NC(=O)c2ccco2)c1`, for which the Kd is > 4 mM (inactive).

`COCC(=O)Nc1nc2ccc(C)cc2s1`: the Kd was > 4 mM (inactive).

On to `O=C(O)C1CSC(c2ccco2)N1` (stereo unspecified), for which the Kd was > 4 mM (inactive).

Take `CSc1ccccc1NC(=O)c1ccoc1C`: the Kd is > 4 mM (inactive).

For the compound `CC(=O)Nc1ccn(Cc2c(F)cccc2Cl)n1`, the Kd was > 4 mM (inactive).

As to `COc1cccc2onc(N)c12`, the Kd was > 4 mM (inactive).

Turning to `O=C(O)c1ccc2sccc2c1`, the Kd is > 4 mM (inactive).

Turning to `CC[C@H](CCC(C)[C@H]1CCC2C3CCC4C[C@@H](O)CC[C@]4(C)C3CC[C@@]21C)C(C)C` (stereo partly specified), the Kd is > 4 mM (inactive).

In the case of `CCN1C[C@@]2(COC)C3[C@@H](OC)[C@H]4[C@@H]1[C@]3(C(OC)C[C@H]2O)C1C[C@@]2(O)[C@H](OC(=O)c3ccccc3)C1[C@]4(OC(C)=O)[C@@H](O)[C@@H]2OC` (stereo partly specified), the Kd was > 4 mM (inactive).

`CC(=O)Nc1ccc(S(=O)(=O)NC2=NCCS2)cc1`: the Kd is > 4 mM (inactive).

With `NC1=NC(=O)/C(=C\c2ccccc2)S1`, the Kd was > 4 mM (inactive).

Turning to `Cc1ccc2cc(CO)ccc2n1`, the Kd is > 4 mM (inactive).

Consider `O=C1CSC(=Nc2ccc(Cl)cc2)N1`, for which the Kd is > 4 mM (inactive).

Take `Cn1cccc1C(=S)N1CCOCC1`: the Kd was > 4 mM (inactive).

Take `C[C@H]1[C@H](C)CC[C@]2(CO)CC[C@]3(C)C(=CCC4[C@@]5(C)CC[C@H](O)C(C)(C)C5CC[C@]43C)[C@H]12` (stereo partly specified): the Kd was > 4 mM (inactive).

Regarding `Cc1oc(-c2ccccc2)nc1CCO`, the Kd was > 4 mM (inactive).

As for `COCc1nc(-c2cc(Br)ccc2OC)no1`, the Kd was > 4 mM (inactive).

`Nc1ncc2[nH]cnc2n1`: the Kd is > 4 mM (inactive).

Regarding `O=C(c1nc2ncccn2n1)N1CCc2ccccc2C1`, the Kd is > 4 mM (inactive).

`Cc1ccc2c(C)c(C(=O)Nc3nnc(C)s3)oc2c1`: the Kd was > 4 mM (inactive).

On to `O=c1[nH]cnc2c1nnn2Cc1ccccc1`, for which the Kd was > 4 mM (inactive).

In the case of `COc1ccc(-c2ccc(OC)cc2C(=O)O)cc1`, the Kd was > 4 mM (inactive).

Take `NS(=O)(=O)c1ccc(NC(=O)c2ccccc2F)cc1`: the Kd was > 4 mM (inactive).

For `COc1ccc(CN2CCNC(=O)C2CC(=O)O)cc1C` (stereo unspecified), the Kd is > 4 mM (inactive).

In the case of `CNC(=O)C1CCCN(S(C)(=O)=O)C1` (stereo unspecified), the Kd was > 4 mM (inactive).

Turning to `C=C1C2CC[C@@]3(C)[C@H](c4ccoc4)OC(=O)C[C@]13O[C@H]1CC(=O)C(C)(C)C(CC(=O)OC)C21C` (stereo partly specified), the Kd is > 4 mM (inactive).

Turning to `C[C@H]1[C@H]2CCC3C4CC=C5C[C@@H](N(C)C)CC[C@]5(C)C4CC[C@@]32CN1C` (stereo partly specified), the Kd is > 4 mM (inactive).

In the case of `COc1cc2c(cc1OC)C(=O)OC2`, the Kd was > 4 mM (inactive).

For the compound `c1ccc(CCNc2ncnc3nc[nH]c23)cc1`, the Kd was > 4 mM (inactive).

In the case of `CC(=O)O[C@@H]1CC2C(C)(C)CCC(=O)[C@]2(C)C2CC[C@@]3(C)[C@H](c4ccoc4)OC(=O)C4OC43[C@@]21C` (stereo partly specified), the Kd is > 4 mM (inactive).

`COc1ccccc1-c1noc(-c2ccco2)n1`: the Kd is > 4 mM (inactive).

On to `CC(CC(O)C1OC1(C)C)[C@@H]1CCC2(C)C3=CCC4C(C)(C)C(=O)CCC4(C)C3CC[C@@]12C` (stereo partly specified), for which the Kd was > 4 mM (inactive).

Take `O=C(NN1CCOCC1)c1ccccc1F`: the Kd was > 4 mM (inactive).

Consider `C/C=C(/C)C(=O)O[C@@H]1[C@H](OC(C)=O)[C@@]2(CO)C(CC1(C)C)C1=CCC3[C@@]4(C)CC[C@H](O[C@@H]5O[C@H](C(=O)O)[C@@H](O[C@@H]6O[C@H](CO)[C@@H](O)[C@H](O)[C@H]6O)[C@H](O)[C@H]5O[C@@H]5O[C@H](CO)[C@@H](O)[C@H](O)[C@H]5O)[C@](C)(CO)C4CC[C@@]3(C)[C@]1(C)C[C@H]2O` (stereo partly specified), for which the Kd was > 4 mM (inactive).

For the compound `Nc1nnc(SCc2ccc3c(c2)OCO3)s1`, the Kd was > 4 mM (inactive).

Consider `O=CN1CCN(C(=O)c2ccccc2F)CC1`, for which the Kd is > 4 mM (inactive).

For `COC(=O)Cc1csc(N)n1`, the Kd is > 4 mM (inactive).

Consider `O=C1CNc2cc(C(=O)O)ccc2N1`, for which the Kd is > 4 mM (inactive).

On to `COc1ccc2c(=O)c(CC(=O)O)coc2c1`, for which the Kd is > 4 mM (inactive).

`CC(C)(C)C(=O)Nc1ncc(C(F)(F)F)cc1Cl`: the Kd is > 4 mM (inactive).

With `Cc1cc(N2CCCC2=O)c(N)cc1N`, the Kd was > 4 mM (inactive).

For `Cc1ccc(F)cc1NC(=O)c1ccc2c(c1)OCO2`, the Kd is > 4 mM (inactive).

Regarding `O=C(Nc1ccon1)c1cc2c(s1)CCCC2`, the Kd was > 4 mM (inactive).

Turning to `O=C(O)C1CC(C2CCCCN2)CN2CCCCC12` (stereo unspecified), the Kd is > 4 mM (inactive).

In the case of `COc1cnn(Cc2ccccc2)c(=O)c1Cl`, the Kd was > 4 mM (inactive).

For the compound `NC(=O)CC[C@H](N)C(=O)O`, the Kd is > 4 mM (inactive).

For `Cn1c(SCC(N)=O)nc2ccccc2c1=O`, the Kd was > 4 mM (inactive).

For the compound `OCC1CCN(c2ncccn2)CC1`, the Kd was > 4 mM (inactive).

`Cc1ccc2cc(N)ccc2n1`: the Kd is > 4 mM (inactive).

On to `CC(=O)Oc1ccc(-c2nc(-c3cccnc3)no2)cc1`, for which the Kd was > 4 mM (inactive).

`NN1C(=O)CSC1=Nc1ccccc1`: the Kd is > 4 mM (inactive).

Take `O=C1CSC(=Nc2ccc(C(=O)O)cc2)N1`: the Kd is > 4 mM (inactive).

As for `COc1c(O)cc2c(c1O)[C@H]1O[C@H](CO)[C@@H](O)[C@H](O)[C@@H]1OC2=O`, the Kd is > 4 mM (inactive).

With `CC(=O)Nc1cccc(N2CCCC2=O)c1`, the Kd was > 4 mM (inactive).

On to `COc1cc(N)ncn1`, for which the Kd was > 4 mM (inactive).

Consider `CN1C2CC3C[C@H]1C(O3)C2O` (stereo partly specified), for which the Kd was > 4 mM (inactive).

As for `O=C(c1ccco1)N1CCn2c1nc1ccccc12`, the Kd is > 4 mM (inactive).

Regarding `O=C(O)CCCNC(=O)c1ccccc1C(=O)O`, the Kd was > 4 mM (inactive).

As to `Cn1c(=O)c2c(n(C)c1=O)=NC1(CCCCC1)N=2`, the Kd was > 4 mM (inactive).

Turning to `CC(=O)c1nnc2cc(C)nn2c1C`, the Kd is > 4 mM (inactive).

On to `O=S1(=O)C=CC(N2CCCCC2)C1` (stereo unspecified), for which the Kd was > 4 mM (inactive).

As for `Cc1cc(C(=O)NC(C)c2ccncc2)cs1` (stereo unspecified), the Kd is > 4 mM (inactive).

In the case of `O=C1NC(=O)/C(=C\c2ccco2)S1`, the Kd is > 4 mM (inactive).

As to `Cn1c(=O)c2c(ncn2C)n(C)c1=O`, the Kd is > 4 mM (inactive).

Regarding `CC(=O)Nc1ccc(C(=O)N2CCOCC2)cc1Cl`, the Kd was > 4 mM (inactive).

Take `NC1=C(c2ccccc2)C(=O)c2ccccc21`: the Kd is > 4 mM (inactive).

In the case of `C=CCSCC=C`, the Kd was > 4 mM (inactive).

Source of the values: PubChem BioAssay AID1648 (Sanford-Burnham Center for Chemical Genomics, 2009).
